Counter-ions that a name gives are not always drawn.

One may read the melting point as the temperature, or range, at which the solid turns liquid. In turn, `O=C(c1ccc(-c2ccc3c(c2)CCN([C@@H]2CCCN(C4CCCC4)C2)C3=O)cc1)N1CCCC1` (as salt: hydrochloride) [Example 71, 2-[(3R)-1-cyclopentylpiperidin-3-yl]-6-[4-(pyrrolidin-1-ylcarbonyl)phenyl]-3,4-dihydroisoquinolin-1(2H)-one] came in with a melting point above 250 °C.
As to `CCCN1CCC(N2Cc3cc(-c4ccc(C#N)cc4)ccc3C2=O)CC1` (as salt: hydrochloride) [Example 25, 4-[1-Oxo-2-(1-propylpiperidin-4-yl)-2,3-dihydro-1H-isoindol-5-yl]benzonitrile], the melting point lay in the range of 300 to 302 °C.
Turning to `N#Cc1ccc(-c2ccc3c(c2)CN(C2CCNCC2)C3=O)cc1` (as salt: hydrochloride) [Example 22, 4-(1-oxo-2-piperidin-4-yl-2,3-dihydro-1H-isoindol-5-yl)benzonitrile hydrochloride], the melting point was in the range of 105 to 106 °C.
Regarding `O=C(c1ccc(-c2ccc3c(c2)CCN([C@@H]2CCN(C4CCC4)C2)C3=O)c(F)c1)N1CCCC1` (as salt: hydrochloride) [Example 79, 2-[(3R)-1-cyclobutylpyrrolidin-3-yl]-6-[2-fluoro-4-(pyrrolidin-1-ylcarbonyl)phenyl]-3,4-dihydroisoquinolin-1(2H)-one], the melting point lay within 211 to 212 °C.
`O=C(c1ccc(COc2ccc3c(c2)CCN(C2CCN(C4CCC4)CC2)C3=O)cc1)N1CCCC1` (as salt: hydrochloride) [Example 20, 2-(1-Cyclobutylpiperidin-4-yl)-6-{[4-(pyrrolidin-1-ylcarbonyl)benzyl]oxy}-3,4-dihydroisoquinolin-1(2H)-one]: the melting point was in the range of 284 to 286 °C.
Molecule `CCNC(=O)c1ccc(-c2ccc3c(c2)CCN([C@@H]2CCN(C4CCCC4)C2)C3=O)cc1` (as salt: hydrochloride) [Example 42, 4-{2-[(3R)-1-cyclopentylpyrrolidin-3-yl]-1-oxo-1,2,3,4-tetrahydroisoquinolin-6-yl}-N-ethylbenzamide] registered a melting point above 200 °C.
The value for `CN(C)C(=O)c1ccc(-c2ccc3c(c2)CCN([C@@H]2CCN(C4CCC4)C2)C3=O)cc1` (as salt: hydrochloride) [Example 46, 4-{2-[(3R)-1-cyclobutylpyrrolidin-3-yl]-1-oxo-1,2,3,4-tetrahydroisoquinolin-6-yl}-N,N-dimethylbenzamide] was 211 to 212 °C; that for `O=C(NC1CCCC1)c1ccc2c(c1)CCN([C@@H]1CCN(C3CCC3)C1)C2=O` (as salt: hydrochloride) [Example 88, 2-[(3R)-1-cyclobutylpyrrolidin-3-yl]-N-cyclopentyl-1-oxo-1,2,3,4-tetrahydroisoquinoline-6-carboxamide hydrochloride] was 124 to 125 °C; that for `O=C(NC1CCCC1)c1ccc(COc2ccc3c(c2)CCN(C2CCN(C4CCC4)CC2)C3=O)cc1` (as salt: hydrochloride) [Example 21, 4-({[2-(1-Cyclobutylpiperidin-4-yl)-1-oxo-1,2,3,4-tetrahydroisoquinolin-6-yl]oxy}methyl)-N-cyclopentylbenzamide] was 289 to 291 °C.
The result for `NC(=O)c1ccc(COc2ccc3c(c2)CCN(C2CCN(C4CCC4)CC2)C3=O)cc1` (as salt: hydrochloride) [Example 15, 4-({[2-(1-cyclobutylpiperidin-4-yl)-1-oxo-1,2,3,4-tetrahydroiso-quinolin-6-yl]oxy}methyl)benzamide acid hydrochloride] reads 292 to 293 °C.
The result for `CCNC(=O)c1ccc(Oc2ccc3c(c2)CCN([C@@H]2CCN(C4CCCC4)C2)C3=O)cc1` (as salt: hydrochloride) [Example 38, 4-({2-[(3R)-1-cyclopentylpyrrolidin-3-yl]-1-oxo-1,2,3,4-tetrahydroisoquinolin-6-yl}oxy)-N-ethylbenzamide] reads 178 to 180 °C.

For the origin of these results see US20090069370A1, “AZACYCLYLISOQUINOLINONE AND ISOINDOLINONE DERIVATIVES AS HISTAMINE-3 ANTAGONISTS” (Wyeth, priority 2007, published 2009).
